The values below come from the PolyMetriX glass transition set.

Compound `*CC(=O)NC(C)C(=O)O*` (repeat unit) had a glass transition temperature of 54.60 °C.

`*CC(C)(C)COC(=O)Nc1ccc(C)c(NC(=O)O*)c1` (repeat unit) returned a glass transition temperature of -32.00 °C.

Compound `*CCCCCCOP(=O)(/N=N/c1ccc(C(=O)c2ccc(/N=N/P(=O)(O*)OC)cc2)cc1)OC` (repeat unit) returned a glass transition temperature of 31.00 °C.

In turn, `*CCOC(=O)c1ccc(-c2ccc(C(=O)O*)cc2C)c(C)c1` (repeat unit) registered a glass transition temperature of 73.00 °C.

`*CCOCCOC(=O)C(CCCCCCC)C(=O)O*` (repeat unit) registered a glass transition temperature of -58.00 °C.

On to `*CCOCCOCCOCCOCCOCCOC(=O)c1cc(OCCCCCCOc2ccc(-c3ccc(OC)cc3)cc2)cc(C(=O)O*)c1` (repeat unit), for which the glass transition temperature is 12.50 °C.

As for `*CCOCCOP(=O)(/N=N/c1ccc(C(=O)c2ccc(/N=N/P(=O)(O*)OC)cc2)cc1)OC` (repeat unit), the glass transition temperature was 33.00 °C.

`*CCOCCOP(=O)(/N=N/c1ccc(Oc2ccc(/N=N/P(=O)(O*)OC)cc2)cc1)OC` (repeat unit): the glass transition temperature turned out to be 32.00 °C.

The compound `*CCOP(=O)(/N=N/c1ccc(CCOC(=O)c2cc(C(=O)OCCc3ccc(/N=N/P(=O)(O*)OC)cc3)cc(C(C)(C)C)c2)cc1)OC` (repeat unit) showed a glass transition temperature of 84.00 °C.

The compound `*N=P(*)(C)C` (repeat unit) registered a glass transition temperature of -42.00 °C.

As to `*N=P(*)(C)CCCCCC` (repeat unit), the glass transition temperature was -69.00 °C.

For `*N=P(*)(CCC)CCC` (repeat unit), the glass transition temperature was 10.00 °C.

Compound `*NC1CC(C)(C)CC(C)(CNC(=O)CCCCC(*)=O)C1` (repeat unit) yielded a glass transition temperature of 150.80 °C.

For the compound `*Nc1cc(NC(=O)C(*)=O)ccc1C` (repeat unit), the glass transition temperature was -54.6 °C.

In the case of `*Nc1cc([N+](=O)[O-])c(NC(=O)CCCCCCCCC(*)=O)cc1/C=C/c1ccc(N(C)C)cc1` (repeat unit), the glass transition temperature is 159.00 °C.

In turn, `*Nc1cc([N+](=O)[O-])c(NC(=O)CCCCCCCCCCC(*)=O)cc1/C=C/c1ccc(N(C)C)cc1` (repeat unit) returned a glass transition temperature of 144.00 °C.

Take `*OC(=O)C(C)NC(=O)CCCCCC(=O)NC(C)C(=O)OC1COC2C(*)COC12` (repeat unit): the glass transition temperature is 45.00 °C.

As for `*OC(=O)C(C)NC(=O)CCCCCCC(=O)NC(C)C(=O)OC1COC2C(*)COC12` (repeat unit), the glass transition temperature was determined as 57.00 °C.

Consider `*OC(=O)C(C)NC(=O)CCCCCCCC(=O)NC(C)C(=O)OC1COC2C(*)COC12` (repeat unit), for which the glass transition temperature worked out at 46.00 °C.

`*OC(=O)C(C)NC(=O)CCCCCCCCCCC(=O)NC(C)C(=O)OC1COC2C(*)COC12` (repeat unit) came in with a glass transition temperature of 28.00 °C.

`*OC(=O)C(CC(C)C)NC(=O)CCCCC(=O)NC(CC(C)C)C(=O)OC1COC2C(*)COC12` (repeat unit): the glass transition temperature came out at 91.00 °C.

Regarding `*Oc1cc(OCCOC)c(OC(=O)c2ccc(C(*)=O)cc2OCCOCC)cc1OCCOC` (repeat unit), the glass transition temperature is 99.00 °C.

In turn, `*Oc1ccc(/N=N/c2c(C)cc(Cc3cc(C)c(/N=N/c4ccc(OC(=O)c5ccc(C(*)=O)cc5)cc4)c(C)c3[N+](=O)[O-])c([N+](=O)[O-])c2C)cc1` (repeat unit) displayed a glass transition temperature of 203.00 °C.

On to `*Oc1ccc(Cc2ccc(OC(=O)c3cc(OCCCCC)cc(C(*)=O)c3)cc2)cc1` (repeat unit), for which the glass transition temperature was determined as 110.00 °C.

`*c1ccc(OC(=O)c2cc(C(=O)Oc3ccc(C4(*)OC(=O)c5ccccc54)cc3)cc(C(C)(C)C)c2)cc1` (repeat unit): the glass transition temperature came out at 279.00 °C.

In the case of `*c1ccc2c(c1)C(=O)N(c1cc(C(=O)Oc3ccc(C(c4ccc(OC(=O)c5ccc(C)c(N6C(=O)c7ccc(C(*)(C(F)(F)F)C(F)(F)F)cc7C6=O)c5)cc4)(C(F)(F)F)C(F)(F)F)cc3)ccc1C)C2=O` (repeat unit), the glass transition temperature stood at 289.00 °C.
